Experimental data published in patent US7445931B2, “Compositions and methods for enrichment of neural stem cells using ceramide analogs” (Bresagen, Inc., priority 2002, dated 2008).

Experiments:
[1] = system: differentiating ES-J1 cells; assay: Apoptosis (TUNEL staining, cell death) in differentiating mouse ES cells incubated with ceramide analogs; type: cell-based; details: for number of TUNEL stained cells: 15 hours with 75 μM S16 or S18, or 35 μM C2-ceramide
Procedure: In vitro neural differentiation of mouse ES cells (ES-J1, ES-D3) followed a serum deprivation protocol as described previously (Hancock, et al., 2000 Biochem. Biophys. Res. Commun., 271: 418-421). The differentiation stages are outlined in FIG. 2. Briefly, ES cells were grown on gamma-irradiated feeder fibroblasts for four days in Knockout DMEM/15% Knockout serum replacement, supplemented with ESGRO (LIF; Chemicon; Cat No. ESG1106) at a concentration of 10^3 units/ml medium. ES cells were then grown for another four days on gelatin-coated bacterial culture dishes without a fibroblast feeder layer, and were then grown for three days in Knockout DMEM/15% heat-inactivated ES qualified Fetal Bovine Serum, supplemented with 10^3 units LIF per ml of medium. Upon trypsinization, ES cells were transferred to bacterial culture dishes without gelatin, and embryoid body (EB) formation was induced for four days in Knockout DMEM/10% heat-inactivated ES qualified FBS without LIF (EB4 stage). On the fifth day, floating and loosely attached EBs were rinsed off and transferred to tissue culture dishes. The EBs were allowed to attach to the tissue culture dish surface by incubation for another 24 hours in Knockout DMEM with 10% heat-inactivated ES qualified fetal bovine serum. Neural differentiation due to serum deprivation was induced by cultivation of the EBs for three days in DME/12 (50/50), supplemented with 1×N2 (Invitrogen/Life Technologies; Cat No. 17502, dilution of 1:100) but without serum (EB8 stage). Serum-deprived EBs were then trypsinized, plated on poly-L-ornithine/laminin-coated tissue culture dishes and grown for four days in DMEM/F12 (50/50), supplemented with N2 and 10 ng/ml FGF-2, but without serum. This incubation period is referred to as neuroprogenitor (NP) stage due to commitment of neuroepithelial precursor cells to neuroprogenitor cells, and/or due to the selective expansion of neural progenitor cells in the FGF-2 containing serum-free medium. These cells have committed during the EB stages and were expanded during the NP stage. NPs grown for 48 hours upon replating of trypsinized EBs were referred to as the NP2 stage. On the fifth day of NP formation, the medium was changed to Neurobasal (Invitrogen/Life Technologies; Cat No. 21103-049), with 5% heat-inactivated FBS, and the cells were incubated for another seven days. During this time, NPs fully differentiate to glial cells and neurons. Cells cultured for 24 hours or 96 hours upon changing the medium were referred to as the D1 or D4 stage, respectively.
ES cells were cultured and differentiated to the EB4, EB8, NP2, or D4 stage following the protocol as described above. The ceramide analog S18 was dissolved in ethanol at a concentration of 100 mM and then added to the cells at a final concentration of 75 μM in medium. The cells at the EB8 stage were incubated for 48 hours in the presence of the ceramide analog and were then transplanted into mouse brains.
Differentiating ES cells were grown on cover slips and fixed with 4% paraformaldehyde in phosphate-buffered saline (PBS). Fixed cells were permeabilized with 0.5% Triton X-100 in PBS for 5 minutes at room temperature and unspecific binding sites were saturated by incubation with 3% ovalbumin in PBS for 1 hour at 37° C. The cover slips were then incubated with 5 μg/ml primary antibody (anti-ceramide clone 15B4 mouse IgM, Alexis; anti-PAR-4 rabbit IgG, Santa Cruz; anti-PCNA rabbit IgG, Santa Cruz; anti-nestin clone 401 rat IgG, BD Pharmingen) in 0.1% ovalbumin/PBS, followed by incubation with the appropriate fluorescence-labeled secondary antibody (5 μg/ml Alexa 546 conjugated anti-mouse IgG, Molecular Probes; Alexa 488 conjugated anti-rabbit IgG, Molecular Probes, Cy3 conjugated anti-mouse IgM, Jackson) for 2 hours at 37° C. The nuclei were stained by treatment with 2 μg/ml Hoechst 33258 in PBS for 30 minutes at room temperature. […]

Oct-4 = Oct-4 immunoblotting of EB8 stage cells incubated with S18; type: cell-based, mouse; details: EB8 stage cells incubated with 75 μM S18 for 24 hours
Procedure: In vitro differentiating ES cells at stage EB8 were incubated for […] with 75 μM S18, or 35 μM N-acyl sphingosine or other ceramide analogs. Protein was isolated from cells incubated with S18 for 24 hours and from untreated cells, separated by SDS-PAGE, and the expression of Oct-4 was analyzed by immunoblotting.

## CCCCCCCC/C=C\CCCCCCCC(=O)NC(CO)CO [S18, N-(2-hydroxy-1-(hydroxymethyl)ethyl)-oleoylamide]
[1]; EB8 and NP2 stages, 20 hours with 75 μM S18
  cell death: high degree of cell death
[1]; EB8 stage
  number of TUNEL stained cells: 45±10%
[1]; NP2 stage
  number of TUNEL stained cells: 70±10%
[1]; differentiated neurons, 20 hours with 75 μM S18
  effect on differentiated neurons (cell death): unaffected
Oct-4
  Oct-4 immunostaining relative to untreated control cells: 25%
  decrease in Oct-4 protein levels: 75%
